# Measurements reported in patent EP0071892A2, “Phospholipid derivatives, process for preparation thereof and pharmaceutical composition of the same” (priority 1981, dated 1983).
# Read-outs that look alike come from different tables or passages of the source.
# Assays:
# Fibrosarcoma Meth A [1] = assay: Test Method A: intradermally inoculated Meth A tumor in mice, intratumoral injection of test compound, tumor growth inhibition; format: in vivo, BALB/c mice; conditions: 100 µg/mouse intratumorally once daily from Day 1 to Day 4 postimplant; for Mean of two diameters of the growing tumor: 1 x 10^5 Meth A cells intradermally; for responders at 0.1 mg / inhibition in vivo at 0.1 mg: Meth-A; for responders at 0.1 mg: read-out: Ratio of tumor free mice [Number of tumor free mice/ Number of mice used as a group] (converted); for inhibition in vivo at 0.1 mg: Mus musculus, read-out: Tumor growth inhibition (%) [(1-T/c)x100]
# Procedure: Groups of six female BALB/c mice, aged 12 weeks and weighing 19 - 21 g were used.
# Fib,rosarcoma Meth A (hereinafter referred to as Meth A) was successively transferred every 7 days into BALB/c mice by intraperitoneal inoculation of the ascites cells thereof and the Meth A in the ascites cells as harvested 6 days after the inoculation was used as tumor cells.
# Each of the BALB/c mice was inoculated intradermally with 1 x 10^5 Meth A cells in 0.05 ml Hanks solution.
# Test compound was dissolved in 0.5% methylcellulose saline solution, and was intratumorally injected to each of the mice in doses of 100 µg/mouse once daily from Day 1 to Day 4 postimplant.
# The control group was given with a vehicle alone in the same way.
# The antitumor effectiveness of the test compound was estimated by tumor growth inhibition (1-T/C). • T: Mean diameter of the growing tumor of the medicated group • C: Mean diameter of the growing tumor of the control group
# Fibrosarcoma Meth A [2] = assay: Test Method B: intrapleurally inoculated Meth A tumor in mice, injection into pleural cavity, mean survival time; format: in vivo, BALB/c mice; set-up: dose or concentration left out as unconfirmed; conditions: for Anti-tumor activity (%) *d: comparison of mean survival time of medicated group (T) and control group (C), into pleural cavity three times; for Mean survival time: into pleural cavity three times (before 14 days, after 1 hour and after 3 days of tumor implantation), 5 x 10^5 Meth A cells intrapleurally
# Procedure: Groups of eight female BALB/c mice, aged 8-9 weeks and weighing 18.0-22.5 g were used.
# Fibrosarcoma Meth A (hereinafter referred to as Meth A) was successively transferred every 7 days into BALB/c mice by intraperitoneal inoculation of the ascites cells thereof and the Meth A in the ascites cells as harvested 6 or 7 days after the inoculation was used as tumor cells.
# Each of the BALB/c mice was inoculated intrapleurally with 5 x 10^5 Meth A cells in 0.1 ml Hanks solution.
# Test compound was dissolved in phosphate buffer saline solution, and was injected into pleural cavity to each of the mice in doses of 100 pg/0.05 ml/mouse three times, i.e. before 14 days, after 1 hour and after 3 days of tumor implantation.
# The antitumor activity of the test compound was estimated by comparing mean survival time of the two groups. • T : Mean survival time of the medicated group • C : Mean survival time of the control group
SMILES,Mean of two diameters of the growing tumor (Fibrosarcoma Meth A [1]; Day 14) [mm],Ratio of tumor free mice [Number of tumor free mice/ Number of mice used as a group] (Fibrosarcoma Meth A [1]; Day 21),Mean of two diameters of the growing tumor (Fibrosarcoma Meth A [1]; Day 21) [mm],responders at 0.1 mg (Fibrosarcoma Meth A [1]; Day 14) [%],inhibition in vivo at 0.1 mg (Fibrosarcoma Meth A [1]; Day 14) [%],inhibition in vivo at 0.1 mg (Fibrosarcoma Meth A [1]; Day 21) [%],Anti-tumor activity (%) *d (Fibrosarcoma Meth A [2]) [%],Mean survival time (Fibrosarcoma Meth A [2]) [days]
"CCCCCCCCCCCCCCCCCCOCC(COP(=O)(O)OCCN1CCN(C)CC1)OCC (racemic) [3-(1), (rac)-l-O-Octadecyl-2-0-ethyl-glycerol-3-[2-(4-methyl-l-piperazinyl)ethyl]phosphate]",0,6/6,0,100,100,100,342,20.5
"CCCCCCCCCCCCCCCCCCOCC(COP(=O)([O-])OCC[n+]1ccccc1)OC (racemic) [Example 1, (rac)-l-O-octadecyl-2-0-methyl-glycerol-3-[2-(1-pyridinio)ethyl]phosphate]",0,6/6,0,100,100,100,367,22.0
